Where two headings read alike, the source gives them in different places.
Key:
VEGFR-2 [1] = target: T1, VEGFR-2 (Homo sapiens, UniProt P35968); set-up: purchased Carna Biosciences, Inc; conditions: cited from earlier work
EGFR [2] = target: T2, EGFR (Homo sapiens, UniProt P00533); set-up: 645–1186); His6 (N); made in house; host or cells: Sf-9 insect cells (baculovirus; pBlueBacHis2B / pFASTBacHTc; conditions: cited from earlier work
cancer cell lines = test system: cancer cell lines; set-up: method as in PMID 32920363, PMID 29407956, PMID 36770936, PMID 36015154, PMID 35078049; conditions: cited from earlier work
BRAF^V600E [3] = test system: BRAF^V600E; set-up: method as in PMID 32920363, PMID 29407956, PMID 36770936, PMID 36015154, PMID 35078049; conditions: cited from earlier work
CDK2 = test system: CDK2; set-up: method as in PMID 32920363, PMID 29407956, PMID 36770936, PMID 36015154, PMID 35078049; conditions: cited from earlier work
[4] = Cell viability assay (MTT) on MCF-10A; type: cell-based; conditions: human, MCF-10A mammary gland epithelial cells, MCF-10A cells, four days
Procedure: To assess the viability of compounds IV and Va–i, the human mammary gland epithelial (MCF-10A) cell line was exploited. Compounds IV and Va–i were cultured for four days on MCF-10A cells before being evaluated for vitality using the MTT assay.
To test the viability of the new compounds, the human mammary gland epithelial (MCF-10A) cell line was used. Compounds IV and Va–i were incubated on MCF-10A cells for four days before being tested for viability using the MTT assay. See Supplementary Materials.
4.2. Biological evaluation
4.2.1. Cytotoxic activity using MTT Assay and evaluation of IC50
MTT assay was performed to investigate the effect of the synthesized compounds on mammary epithelial cells (MCF-10A). The cells were propagated in medium consisting of Ham's F-12 medium/ Dulbecco's modified Eagle's medium (DMEM) (1:1) supplemented with 10% foetal calf serum, 2 mM glutamine, insulin (10 μg/mL), hydrocortisone (500 ng/mL) and epidermal growth factor (20 ng/mL). Trypsin ethylenediamine tetra acetic acid (EDTA) was used to passage the cells after every 2-3 days. 96-well flat-bottomed cell culture plates were used to seed the cells at a density of 10^4 cells mL-1. The medium was aspirated from all the wells of culture plates after 24 h followed by the addition of synthesized compounds (in 200 μL medium to yield a final concentration of 0.1% (v/v) dimethyl sulfoxide) into individual wells of the plates. Four wells were designated to a single compound. The plates were allowed to incubate at 37°C for 96 h. Afterwards, the medium was aspirated and 3-[4,5-dimethylthiazol-2-yl]-2,5-diphenyltetrazolium bromide (MTT) (0.4 mg/mL) in medium was added to each well and subsequently incubated for 3 h. The medium was aspirated and 150 μL dimethyl sulfoxide (DMSO) was added to each well. The plates were vortexed followed by the measurement of absorbance at 540 nm on a microplate reader. The results were presented as inhibition (%) of proliferation in contrast to controls comprising 0.1%

[5] = test system: human epithelial (A-549) cancer cell line; assay: Antiproliferative assay, A-549; type: cell-based; conditions: A549, read-out: Antiproliferative Activity IC50 ± SEM, A-549
Procedure: (§1) 4.2.1.2. Assay for antiproliferative effect
(§2) To explore the antiproliferative potential of compounds propidium iodide fluorescence assay was performed using different cell lines such as Panc-1 (pancreas cancer cell line), MCF-7 (breast cancer cell line), HT-29 (colon cancer cell line) and A-549 (epithelial cancer cell line), respectively.
(§3) To calculate the total nuclear DNA, a fluorescent dye (propidium iodide, PI) is used which can attach to the DNA, thus offering a quick and precise technique. PI cannot pass through the cell membrane and its signal intensity can be considered as directly proportional to quantity of cellular
(§4) DNA. Cells whose cell membranes are damaged or have changed permeability are counted as dead ones. The assay was performed by seeding the cells of different cell lines at a density of 3000-7500 cells/well (in200μl medium) in culture plates followed by incubation for 24h at 37 °C in humidified 5%CO2/95% air atmospheric conditions. The medium was removed; the compounds were added to the plates at 10 μM concentrations (in 0.1% DMSO) in triplicates, followed by incubation for 48h. DMSO (0.1%) was used as control. After incubation, medium was removed followed by the addition of PI (25 μl, 50μg/mL in water/medium) to each well of the plates. At - 80 °C, the plates were allowed to freeze for 24 h, followed by thawing at 25 °C. A fluorometer (Polar-Star BMG Tech) was used to record the readings at excitation and emission wavelengths of 530 and 620 nm for each well. The percentage cytotoxicity of compounds was calculated using […]
(§5) Where ATC= Absorbance of treated cells and AC= Absorbance of control. Erlotinib was used as positive control in the assay.

[6] = test system: breast cancer (MCF-7) cell line; assay: Antiproliferative assay, MCF-7; type: cell-based; conditions: Homo sapiens, MCF7; read-out: Antiproliferative Activity IC50 ± SEM, MCF-7
Procedure: as §1, §2, §3, §4, §5

[7] = test system: pancreatic cancer (Panc-1) cell line; assay: Antiproliferative assay, Panc-1; type: cell-based; conditions: Homo sapiens, read-out: Antiproliferative Activity IC50 ± SEM, Panc-1
Procedure: as §1, §2, §3, §4, §5

[8] = test system: colon cancer (HT-29) cell line; assay: Antiproliferative assay, HT-29; type: cell-based; conditions: Homo sapiens, read-out: Antiproliferative Activity IC50 ± SEM, HT-29
Procedure: as §1, §2, §3, §4, §5

[9] = test system: four human cancer cell lines (A-549, MCF-7, Panc-1, HT-29); assay: Antiproliferative assay, average over the four cancer cell lines (GI50); type: cell-based; conditions: average of the four cancer cell lines
Procedure: See Supplementary Materials.
as §1
To explore the antiproliferative potential of compounds propidium iodide fluorescence assay was performed using different cell lines such as Panc-1 (pancreas cancer cell line), MCF-7 (breast […]
as §3
DNA. Cells whose cell membranes are damaged or have changed permeability are counted as dead ones. The assay was performed by seeding the cells of different cell lines at a density of 3000- […]
The medium was removed; the compounds were added to the plates at 10 μM concentrations (in 0.1% DMSO) in triplicates, followed by incubation for 48h. DMSO (0.1%) was used as control. After incubation, medium was removed followed by the addition of PI (25 μl, 50μg/mL in water/medium) to each well of the plates. At - 80 °C, the plates were allowed to freeze for 24 h, followed by thawing at 25 °C. A fluorometer (Polar-Star BMG Tech) was used to record the readings at excitation and emission wavelengths of 530 and 620 nm for each well. The percentage cytotoxicity of compounds was calculated using […]
Where ATC= Absorbance of treated cells and AC= Absorbance of control. […]
positive control in the assay.

caspase-3 = assay: Caspase 3 assay in A-549 cells; type: cell-based, human; conditions: for Caspase-3 Conc: untreated control 66 pg/mL; for Caspase-3 Fold Change: vs untreated control
Procedure: Caspases play a crucial function in the induction and completion of apoptosis. Caspase-3 is an essential caspase that cleaves different proteins in cells, resulting in apoptosis. […]
4.2.5. Caspase-3 activation assay
Allow all reagents to reach room temperature before use. Gently mix all liquid reagents prior to use. Determine the number of 8-well strips needed for the assay. Insert these in the frame(s) for current use. Add 100 μl of the Standard Diluent Buffer to the zero standard wells. Well(s) reserved for chromogen blank should be left empty. Add 100 μl of standards and controls or diluted samples to the appropriate microtiter wells. The sample dilution chosen should be optimized for each experimental system. Tap gently on side of plate to mix. Cover wells with plate cover and incubate for 2 hours at room temperature. Thoroughly aspirate or decant solution from wells and discard the liquid, Wash wells 4 times. Pipette 100 μl of Caspase-3 (Active) Detection Antibody solution into each well except the chromogen blank(s). Tap gently on the side of the plate to mix. Cover plate with plate cover and incubate for 1 hour at room temperature. Thoroughly aspirate or decant solution from wells and discard the liquid, Wash wells 4 times. Add 100 μl Anti-Rabbit IgG HRP Working Solution to each well except the chromogen blank(s). Prepare the working dilution as described in Preparing IgG HRP. Cover wells with the plate cover and incubate for 30 minutes at room temperature. Thoroughly aspirate or decant solution from wells and discard the liquid. Wash wells 4 times. Add 100 μl of Stabilized Chromoge n to each well. The liquid in the wells will begin to turn blue. Incubate for 30 minutes at room temperature and in the dark. The incubation time for chromogen substrate is often determined by the microtiter plate reader used. Many plate readers have the capacity to record a maximum optical density (O.D.) of 2.0. The O.D. values should be monitored, and the substrate reaction stopped before the O.D. of the positive wells exceeds the limits of the instrument. The O.D. values at 450 nm can only be read after the Stop Solution has been added to each well. If using a reader that records only to 2.0 O.D., stopping the assay after […]
Add 100 μl of Stop Solution to each well. Tap side of plate gently to mix. The solution in the wells should change from blue to yellow. Read the absorbance of each well at 450 nm having blanked the plate reader against a chromogen blank composed of 100 μl each of Stabilized Chromogen and Stop Solution. Read the plate within 2 hours after adding the Stop Solution. Use a curve fitting software to generate the standard curve. A four-parameter algorithm provides the best standard curve fit. Read the concentrations for unknown samples and controls from the standard curve. Multiply value(s) obtained for sample(s) by the appropriate dilution factor to correct for the dilution in step 3. Samples producing signals greater than that of the highest standard should be diluted in Standard Diluent Buffer and reanalyzed.

EGFR [10] = target: T2, EGFR; assay: EGFR inhibitory assay
VEGFR-2 [11] = target: T1, VEGFR-2; assay: VEGFR-2 inhibitory assay
Procedure: Prepare all the solutions using autoclaved, deionized water and analytical grade reagents.
and store all the reagents at room temperature (unless indicated otherwise).
solution, add 5 mL ultra-pure water; 1×Kinase Assay Buffer: add 25 mL HEPES solution (1 M),
water, adjust pH to 7.5 and constant volume to 500 mL using ultrapure water; 4×Stop solution (40
mM): Mix 0.8 mL of the foregoing EDTA solution, 1 mL 10×Detection Buffer and 8.2 mL ultra-
pure water; 1×Detection Buffer: Mix 1 mL 10×Detection Buffer with 9 mL water; 4×VEGFR
μM) was added to 624 μL 1×Kinase Assay Buffer and mixed; 4×ULight™-labeled JAK1
concentration 5 μM) was added to 576 μL 1×Kinase Assay Buffer and mixed; 4×ATP Solution
2×substrate/ATP Mix: 560 μL foregoing 4×ULight™-labeled JAK1 and 560 μL 4×ATP solution
and mixed (prepared before use). The assays used an ULight-labeled peptide substrate and a
Europium-W1024-labeled antiphosphotyrosine antibody. The VEGFR-2 was purchased from
Carna Biosciences, Inc. (New York, USA). The 384-well plates were obtained from PerkinElmer.
5 μL 2×VEGFR-2 kinase solution (0.5 nM)
was added to 384-well plates homogeneous mixing and pre-reaction at room temperature for 30 min. Next, 2.5 μL 4×Ultra ULightTM-JAK-1(Tyr1023) Peptide (200 nM)/ATP (40 μM) was added to the corresponding wells of a 384-well plate. Negative control: 2.5 μL/well 4×substrate/ATP mixture and 7.5 μL 1×kinase assay buffer in 384-well plate well. Positive control:
μL/well 2×VEGFR-2 kinase solution was added to the 384-well plate, The final concentration of DMSO in the mixing system was 4%. After incubation at room temperature and dark for 60 min, 5 μL 4×stop solution was added to corresponding wells to react for 5 min and then 5 μL 4×detection mix was added to the corresponding wells of a 384-well plate. The mixture was centrifugally mixed and stayed for 60 min at room temperature for color development. The plate was read using a Envision plate reader. The inhibition rate (%) = (positive well reading-compound well reading)/(positive well reading-negative well reading)×100. The corresponding IC50 values were calculated using GraphPad Prism 5.0.

BRAF^V600E [12] = target: BRAF^V600E (Mus musculus, UniProt P28028, V585E); assay: BRAF^V600E inhibitory assay
Procedure: BRAFV600E inhibitory assay
V600E mutant BRAF kinase assay was performed to investigate the activity of tested compounds against BRAF. Mouse full-length GST-tagged BRAFV600E (7.5 ng, Invitrogen, PV3849) was pre-incubated with drug (1 µL) and assay dilution buffer (4 µL) for 60 min at 25 °C. In assay dilution buffer, a solution (5 µL) containing MgCl2 (30 mM), ATP (200 µM), recombinant human full length (200 ng) and N-terminal His-tagged MEK1 (Invitrogen) was added to start the assay, subsequent to incubation for 25 min at 25 °C. The assay was stopped using 5X protein denaturing buffer (LDS) solution (5 µL). To further denature the protein, heat (70° C) was applied for 5 min.
10 µL of each reaction was loaded into the precast plates and electrophoresis was allowed to proceed. After completion of electrophoresis, the front part of the precast gel plate (holding hot ATP) was cut and afterwards cast-off. The dried gel was developed using a phosphor screen.

[13] = four cancer cell lines, read-out: GI50 vs four cancer cell lines

T2 sequence (P00533 669-1210): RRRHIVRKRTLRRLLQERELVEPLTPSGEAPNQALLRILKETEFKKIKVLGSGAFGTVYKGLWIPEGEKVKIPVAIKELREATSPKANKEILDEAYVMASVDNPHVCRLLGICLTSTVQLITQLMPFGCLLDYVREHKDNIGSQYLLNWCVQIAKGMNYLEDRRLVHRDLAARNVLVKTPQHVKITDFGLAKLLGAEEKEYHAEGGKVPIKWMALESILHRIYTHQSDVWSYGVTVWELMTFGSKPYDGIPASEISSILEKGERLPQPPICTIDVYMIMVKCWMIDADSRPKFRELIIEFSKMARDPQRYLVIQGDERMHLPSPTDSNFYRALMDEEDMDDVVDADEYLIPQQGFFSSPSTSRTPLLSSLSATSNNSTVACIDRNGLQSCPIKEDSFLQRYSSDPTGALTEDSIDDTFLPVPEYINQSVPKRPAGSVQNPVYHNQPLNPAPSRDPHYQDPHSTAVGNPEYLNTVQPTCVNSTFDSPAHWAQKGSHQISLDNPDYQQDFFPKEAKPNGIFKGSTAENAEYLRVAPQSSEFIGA
Sequence of BRAF^V600E (Mus musculus, UniProt P28028, V585E) (P28028 whole entry V585E): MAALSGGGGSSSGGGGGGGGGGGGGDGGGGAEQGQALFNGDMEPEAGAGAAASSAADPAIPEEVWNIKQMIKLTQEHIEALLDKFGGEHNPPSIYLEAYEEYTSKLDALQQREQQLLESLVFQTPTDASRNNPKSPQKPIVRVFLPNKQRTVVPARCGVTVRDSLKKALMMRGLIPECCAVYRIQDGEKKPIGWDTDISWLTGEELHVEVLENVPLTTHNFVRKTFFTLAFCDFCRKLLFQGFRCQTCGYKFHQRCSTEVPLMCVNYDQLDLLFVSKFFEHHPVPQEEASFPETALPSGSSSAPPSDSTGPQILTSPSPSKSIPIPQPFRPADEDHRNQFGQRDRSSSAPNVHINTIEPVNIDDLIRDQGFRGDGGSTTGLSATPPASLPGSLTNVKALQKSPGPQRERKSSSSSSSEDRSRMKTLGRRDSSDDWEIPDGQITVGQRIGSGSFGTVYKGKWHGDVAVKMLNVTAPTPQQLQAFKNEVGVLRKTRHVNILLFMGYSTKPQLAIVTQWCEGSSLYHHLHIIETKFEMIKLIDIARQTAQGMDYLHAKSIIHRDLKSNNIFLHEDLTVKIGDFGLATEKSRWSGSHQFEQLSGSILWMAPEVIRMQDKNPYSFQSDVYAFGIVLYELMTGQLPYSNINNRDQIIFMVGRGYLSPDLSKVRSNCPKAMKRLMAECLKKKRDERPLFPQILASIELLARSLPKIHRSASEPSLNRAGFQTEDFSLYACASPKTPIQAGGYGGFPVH
T1 sequence (P35968 20-1356): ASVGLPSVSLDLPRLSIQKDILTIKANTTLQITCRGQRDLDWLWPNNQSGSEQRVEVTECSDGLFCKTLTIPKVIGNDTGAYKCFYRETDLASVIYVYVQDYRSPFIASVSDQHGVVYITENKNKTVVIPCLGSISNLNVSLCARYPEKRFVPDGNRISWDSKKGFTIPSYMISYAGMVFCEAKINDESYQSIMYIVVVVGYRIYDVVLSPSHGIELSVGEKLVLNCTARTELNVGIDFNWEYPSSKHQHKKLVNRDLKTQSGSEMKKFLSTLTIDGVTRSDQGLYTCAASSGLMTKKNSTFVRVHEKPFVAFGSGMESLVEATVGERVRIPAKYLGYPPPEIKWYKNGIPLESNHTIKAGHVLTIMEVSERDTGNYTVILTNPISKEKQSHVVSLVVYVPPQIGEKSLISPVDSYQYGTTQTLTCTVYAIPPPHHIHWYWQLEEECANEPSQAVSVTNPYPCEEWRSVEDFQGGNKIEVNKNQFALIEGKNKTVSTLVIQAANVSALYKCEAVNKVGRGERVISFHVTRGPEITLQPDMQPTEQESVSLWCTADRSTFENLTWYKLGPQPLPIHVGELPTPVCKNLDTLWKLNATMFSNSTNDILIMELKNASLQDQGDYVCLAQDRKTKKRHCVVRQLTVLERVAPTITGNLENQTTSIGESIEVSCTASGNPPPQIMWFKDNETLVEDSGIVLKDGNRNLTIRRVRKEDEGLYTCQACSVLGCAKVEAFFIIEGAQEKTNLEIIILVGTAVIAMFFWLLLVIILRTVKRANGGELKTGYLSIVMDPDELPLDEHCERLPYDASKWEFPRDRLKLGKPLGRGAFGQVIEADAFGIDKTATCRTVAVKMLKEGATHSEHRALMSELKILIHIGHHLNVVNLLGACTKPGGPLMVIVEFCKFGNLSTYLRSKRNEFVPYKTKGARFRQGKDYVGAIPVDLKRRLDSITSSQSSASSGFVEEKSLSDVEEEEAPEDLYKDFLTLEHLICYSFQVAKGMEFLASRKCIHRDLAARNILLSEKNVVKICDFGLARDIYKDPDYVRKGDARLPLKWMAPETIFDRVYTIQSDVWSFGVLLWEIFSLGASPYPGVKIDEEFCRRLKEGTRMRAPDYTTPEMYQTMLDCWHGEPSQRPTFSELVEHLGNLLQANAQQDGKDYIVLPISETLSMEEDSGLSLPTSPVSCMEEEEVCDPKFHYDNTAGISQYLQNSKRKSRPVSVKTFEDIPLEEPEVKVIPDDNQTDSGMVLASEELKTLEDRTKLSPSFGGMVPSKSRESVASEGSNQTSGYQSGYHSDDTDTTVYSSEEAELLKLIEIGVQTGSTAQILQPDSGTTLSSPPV

c1nc(Nc2ccc(N3CCOCC3)cc2)cc(Oc2ccc3[nH]ccc3c2)n1 [Compound 4]
IC50 (VEGFR-2 [1]): 1200 nM | IC50 (EGFR [2]): 7 nM

Cc1c2cc(Cl)ccc2n2cc(Cc3ccccc3)[nH]c(=O)c12 [Compound 6]
GI50 (cancer cell lines; three cancer cell lines, read-out: GI50 vs three cancer cell lines): 500 nM | IC50 (BRAF^V600E [3]): 100 nM

Cc1c2n(c3ccc(Cl)cc13)C(=O)CN(CCc1ccc(N3CCOCC3)cc1)C2=O [Compound 7]
GI50 (cancer cell lines; [13]): 1100 nM | IC50 (BRAF^V600E [3]): 150 nM

CCOCc1c2n(c3ccc(Cl)cc13)C(=O)CN(CCc1ccc(N3CCOCC3)cc1)C2=O [Compound 9]
GI50 (cancer cell lines; [13]): 35 nM | IC50 (BRAF^V600E [3]): 45 nM

Cc1c(C(=O)NCCc2ccc(N3CCCC3C)cc2)[nH]c2ccc(Cl)cc12 (stereo not shown) [Compound 10]
GI50 (cancer cell lines; [13]): 950 nM | IC50 (CDK2): 13 nM

CCc1c(C(=O)NCCc2ccc(N3CCOCC3)cc2)[nH]c2ccc(C)cc12 [Compound 12]
GI50 (cancer cell lines; [13]): 37 nM | IC50 (CDK2): 16 nM

CCOCc1c(C(=O)NCC(c2ccccc2)c2c(-c3ccccc3)[nH]c3ccccc23)[nH]c2ccc(Cl)cc12 (stereo not shown) [Compound Vh, 5-Chloro-3-(ethoxymethyl)-N-(2-phenyl-2-(2-phenyl-1H-indol-3-yl)ethyl)-1H-indole-2-carboxamide]
viability at 96 h, 50 µM [4]: 90% | IC50 [5]: 34 ± 3 nM | IC50 [6]: 38 ± 3 nM | IC50 [7]: 36 ± 3 nM | IC50 [8]: 38 ± 3 nM | GI50 [9]: 37 nM | Caspase-3 Conc (caspase-3): 460 ± 4 pg/mL | Caspase-3 Fold Change (caspase-3): 7 | melting point: 210 to 212 °C | IC50 (EGFR [10]): 85 ± 7 nM | IC50 (VEGFR-2 [11]): 3.25 ± 0.25 nM | IC50 (BRAF^V600E [12]): 89 ± 7 nM

O=C(NCC(c1ccccc1)c1c(-c2ccccc2)[nH]c2ccccc12)c1[nH]c2ccc(Cl)cc2c1CO (stereo not shown) [Ve, 5-Chloro-3-(hydroxymethyl)-N-(2-phenyl-2-(2-phenyl-1H-indol-3-yl)ethyl)-1H-indole-2-carboxamide]
viability at 96 h, 50 µM [4]: 90% | IC50 [5]: 42 ± 4 nM | IC50 [6]: 46 ± 4 nM | IC50 [7]: 44 ± 4 nM | IC50 [8]: 45 ± 4 nM | GI50 [9]: 44 nM | Caspase-3 Conc (caspase-3): 462 ± 4 pg/mL | Caspase-3 Fold Change (caspase-3): 7 | melting point: 132 to 134 °C | IC50 (EGFR [10]): 94 ± 7 nM | IC50 (VEGFR-2 [11]): 1.1 ± 0.08 nM | IC50 (BRAF^V600E [12]): 97 ± 8 nM

O=C(NCC(c1ccccc1)c1c(-c2ccccc2)[nH]c2ccccc12)c1[nH]c2ccc(Cl)cc2c1-c1ccccc1 (stereo not shown) [Vf, 5-Chloro-3-phenyl-N-(2-phenyl-2-(2-phenyl-1H-indol-3-yl)ethyl)-1H-indole-2-carboxamide]
viability at 96 h, 50 µM [4]: 91% | IC50 [5]: 46 ± 4 nM | IC50 [6]: 49 ± 4 nM | IC50 [7]: 48 ± 4 nM | IC50 [8]: 48 ± 4 nM | GI50 [9]: 48 nM | melting point: 131 to 133 °C | IC50 (EGFR [10]): 103 ± 8 nM | IC50 (VEGFR-2 [11]): 2.5 ± 0.2 nM | IC50 (BRAF^V600E [12]): 107 ± 9 nM

Source: PMC10385579, “Design, Synthesis, and Biological Evaluation of Indole-2-carboxamides as Potential Multi-Target Antiproliferative Agents” (Pharmaceuticals, 2023)
